The results in this text go back to patent publication US20240376097A1, “BCL-2 Inhibitor” (BeiGene Ltd., priority 2020, published 2024).

Structures are written as SMILES.

Assay type in all cases: binding
In experiment [1] the target is recombinant human Bcl-2-G101V protein (Homo sapiens (Human), UniProt P10415, G101V). The experiment can be described thus: Bcl-2-G101V TR-FRET Assay. The settings on record: Bcl-2 G101V mutant, TR-FRET; read-out: Biochemical assay (IC50, nM) Bcl-2 G101V. As for the experimental part: (§1) Biological Example: Bcl-2-G101V TR-FRET Assay
(§2) […]. The TR-FRET signals (ex337 nm, em490 nm/520 nm) were read on BMG PHERAstar FSX instrument. The inhibition percentage of Bcl-2-G101V interaction with its ligand in presence of increasing concentrations of compounds was calculated based on the ratio of fluorescence at 490 nm to that at 520 nm. The IC50 for each compound was derived from fitting the data to the four-parameter logistic equation by Graphpad Prism software or Dotmatics.
For orientation: In TR-FRET formats the signal depends on donor and acceptor labels being close together.

In experiment [2] the test system is recombinant human Bcl-2-G101V protein. Nature of the experiment: Bcl-2-G101V TR-FRET Assay. The settings on record: ratio of biochemical IC50 Bcl-2 G101V / Bcl-2 WT. As for the experimental part:
as §1, §2

Experiment [3] concerns the target Recombinant human Bcl-2 protein (Homo sapiens (Human), UniProt P10415). The experiment can be described thus: Bcl-2 TR-FRET Assay. The conditions noted are these: Bcl-2 wild type, TR-FRET; read-out: Biochemical assay (IC50, nM) Bcl-2 WT. The protocol: Biological Example: Bcl-2 TR-FRET Assay
Compounds disclosed herein were tested for blocking of Bcl-2 protein with its ligand in an assay based on Time-Resolved Fluorescence Resonance Energy Transfer (TR-FRET) methodology. Recombinant human 0.05 nM Bcl-2 protein was pre-incubated with a serial dilution of compounds disclosed herein (top final concentration is 1 uM or 0.1 uM or 0.02 uM or 0.01 uM, 10 points) at room temperature for 0.5 hour in an assay buffer containing 20 mM potassium phosphate buffer, pH 7.5, 50 mM NaCl. 1 mM EDTA, 0.05% Tween-20, 0.01% BSA. Then the FITC labeled Bak peptide Ac-GQVGRQLAIIGDK(FITC)INR-amide (0.5 nM) and MAb Anti 6His Tb cryptate Gold were added to plate and further incubated at room temperature for 1 hour. The TR-FRET signals (337 nm-520 nm-490 nm) were read on BMG PHERAstar FSX instrument. The inhibition percentage of Bcl-2 interaction with its ligand in presence of increasing concentrations of compounds was calculated based on the TR-FRET signals. The IC50 for each compound was derived from fitting the data to the four-parameter logistic equation by Graphpad Prism software or Dotmatics.

Consider `CC(C)c1ccccc1C1CN(Cc2cccc3c2CCCC3)CCN1C1CC2(CCN(c3ccc(C(=O)NS(=O)(=O)c4ccc(NCC5CCOCC5)c([N+](=O)[O-])c4)c(Oc4cnc5[nH]ccc5c4)c3)CC2)C1` (stereo not drawn) [Example 56, 2-((1H-pyrrolo[2,3-b]pyridin-5-yl)oxy)-4-(2-(2-(2-isopropylphenyl)-4-((5,6,7,8-tetrahydronaphthalen-1-yl)methyl)piperazin-1-yl)-7-azaspiro[3.5]nonan-7-yl)-N-((3-nitro-4-(((tetrahydro-2H-pyran-4-yl)methyl)amino)phenyl)sulfonyl) benzamide], for which the IC50 was found to be 13 nM in experiment [1] and 2.7 nM in experiment [3]. Moreover, in experiment [2], the “Ratio of Bcl-2 G101V/WT” value is listed as 4.8.
For `COc1cc(CN2CCN(C3CC4(CCN(c5ccc(C(=O)NS(=O)(=O)c6ccc(NC[C@H]7CC[C@](C)(O)CC7)c([N+](=O)[O-])c6)c(Oc6cnc7[nH]cc(F)c7c6)c5)CC4)C3)[C@H](c3ccccc3C(C)C)C2)ccc1C(F)(F)F` [Example 279], the IC50 in experiment [1] is 6.3 nM; in experiment [3], 2 nM. Further, in experiment [2], the “Ratio of Bcl-2 G101V/WT” value was 3.2.
Regarding `CC(C)c1ccccc1C1CN(Cc2cccc3c2OC(F)(F)O3)CCN1C1CC2(CCN(c3ccc(C(=O)NS(=O)(=O)c4ccc(NC[C@H]5CC[C@](C)(O)CC5)c([N+](=O)[O-])c4)c(Oc4cnc5[nH]ccc5c4)c3)CC2)C1` (stereo partly drawn) [Example 129, 2-((1H-pyrrolo[2,3-b]pyridin-5-yl)oxy)-4-(2-(4-((2,2-difluorobenzo [d][1,3]dioxol-4-yl)methyl)-2-(2-isopropylphenyl)piperazin-1-yl)-7-azaspiro[3.5]nonan-7-yl)-N-((4-((((1r,4r)-4-hydroxy-4-methylcyclohexyl)methyl)amino)-3-nitrophenyl)sulfonyl)benzamide], the half-maximal inhibitory concentration (IC50) in experiment [1] came to 7.8 nM; in experiment [3], 1.8 nM. Also, the “Ratio of Bcl-2 G101V/WT” value in experiment [2] was found to be 4.4.
For the molecule `COc1cc(CN2CCN(C3CC4(CCN(c5ccc(C(=O)NS(=O)(=O)c6ccc(NC[C@H]7CC[C@](C)(O)CC7)c([N+](=O)[O-])c6)c(Oc6cnc7[nH]ccc7c6)c5)CC4)C3)[C@H](c3ccccc3C(C)C)C2)ccc1C1CCCC1` [Example 294, 2-((1H-pyrrolo[2,3-b]pyridin-5-yl)oxy)-4-(2-((R)-4-(4-cyclopentyl-3-methoxybenzyl)-2-(2-isopropylphenyl)piperazin-1-yl)-7-azaspiro[3.5]nonan-7-yl)-N-((4-((((1r,4r)-4-hydroxy-4-methylcyclohexyl)methyl)amino)-3-nitrophenyl)sulfonyl)benzamide], the IC50 in experiment [1] was 10 nM; in experiment [3], 3.2 nM. Moreover, the “Ratio of Bcl-2 G101V/WT” value in experiment [2] is listed as 3.2.
For the molecule `CC(C)c1ccccc1C1CN(Cc2cccc3c2CCCC3)CCN1C1CC2(CCN(c3ccc(C(=O)NS(=O)(=O)c4ccc(NC[C@H]5CC[C@](C)(O)CC5)c([N+](=O)[O-])c4)c(Oc4cnc5[nH]ccc5c4)c3)CC2)C1` (stereo partly drawn) [Example 55, 2-((1H-pyrrolo[2,3-b]pyridin-5-yl)oxy)-N-((4-((((1r,4r)-4-hydroxy-4-methylcyclohexyl)methyl)amino)-3-nitrophenyl)sulfonyl)-4-(2-(2-(2-isopropylphenyl)-4-((5,6,7,8-tetrahydronaphthalen-1-yl)methyl)piperazin-1-yl)-7-azaspiro[3.5]nonan-7-yl)benzamide], the values for the IC50 in experiment [1] and in experiment [3] were 12 nM and 3.8 nM, respectively. Moreover, in experiment [2], the “Ratio of Bcl-2 G101V/WT” value stood at 3.2.
In the case of `CC(C)c1ccccc1C1CN(C2CCOC2)CCN1C1CC2(CCN(c3ccc(C(=O)NS(=O)(=O)c4ccc(NC[C@H]5CC[C@](C)(O)CC5)c([N+](=O)[O-])c4)c(Oc4cnc5[nH]ccc5c4)c3)CC2)C1` (stereo partly drawn) [Example 8, 2-((1H-pyrrolo[2,3-b]pyridin-5-yl)oxy)-N-((4-((((1r,4r)-4-hydroxy-4-methylcyclohexyl)methyl)amino)-3-nitrophenyl)sulfonyl)-4-(2-(2-(2-isopropylphenyl)-4-(tetrahydrofuran-3-yl)piperazin-1-yl)-7-azaspiro[3.5]nonan-7-yl)benzamide], the IC50 came out at 0.32 nM in experiment [1] and 0.02 nM in experiment [3]. Further, in experiment [2], the “Ratio of Bcl-2 G101V/WT” value was determined as 16.0.
For the molecule `COc1cc(CN2CCN(C3CC4(CCN(c5ccc(C(=O)NS(=O)(=O)c6ccc(NC[C@H]7CC[C@](C)(O)CC7)c([N+](=O)[O-])c6)c(Oc6cnc7[nH]ccc7c6)c5)CC4)C3)[C@H](c3ccccc3C(C)C)C2)ccc1CC(C)C` [Example 293], the IC50 in experiment [1] is 11 nM; in experiment [3], 3.2 nM. The “Ratio of Bcl-2 G101V/WT” value in experiment [2] amounted to 3.4.
With `COc1cc(CN2CCN(C3CC4(CCN(c5ccc(C(=O)NS(=O)(=O)c6ccc(NC[C@H]7CC[C@](C)(O)CC7)c([N+](=O)[O-])c6)c(Oc6cnc7[nH]ccc7c6)c5)CC4)C3)C(c3ccccc3C(C)C)C2)cc(C(F)(F)F)c1` (stereo partly drawn) [Example 227, 2-((1H-pyrrolo[2,3-b]pyridin-5-yl)oxy)-N-((4-((((1r,4r)-4-hydroxy-4-methylcyclohexyl)methyl)amino)-3-nitrophenyl)sulfonyl)-4-(2-(2-(2-isopropylphenyl)-4-(3-methoxy-5-(trifluoromethyl)benzyl)piperazin-1-yl)-7-azaspiro[3.5]nonan-7-yl) benzamide], the values for the IC50 in experiment [1] and in experiment [3] were 6.4 nM and 2 nM, respectively. In experiment [2], the “Ratio of Bcl-2 G101V/WT” value turned out to be 3.2.
For `CC(C)c1ccccc1[C@@H]1CN(Cc2ccc(C3CCOCC3)cc2)CCN1C1CC2(C1)CN(c1ccc(C(=O)NS(=O)(=O)c3ccc(NC[C@H]4CC[C@](C)(O)CC4)c([N+](=O)[O-])c3)c(Oc3cnc4[nH]cc(F)c4c3)c1)C2` [Example 370, 2-((3-fluoro-1H-pyrrolo[2,3-b]pyridin-5-yl)oxy)-N-((4-((((1r,4r)-4-hydroxy-4-methylcyclohexyl)methyl)amino)-3-nitrophenyl)sulfonyl)-4-(6-((R)-2-(2-isopropylphenyl)-4-(4-(tetrahydro-2H-pyran-4-yl)benzyl)piperazin-1-yl)-2-azaspiro[3.3]heptan-2-yl) benzamide] the same measures were 0.67 nM, 0.18 nM and 3.7.
Consider `CC#CC(c1ccccc1)N1CCN(C2CC3(CCN(c4ccc(C(=O)NS(=O)(=O)c5ccc(NC[C@H]6CC[C@](C)(O)CC6)c([N+](=O)[O-])c5)c(Oc5cnc6[nH]ccc6c5)c4)CC3)C2)C(c2ccccc2C(C)C)C1` (stereo partly drawn) [Example 63], for which the results for the IC50 in experiment [1] and in experiment [3] were 20 nM and 1.4 nM, respectively. The “Ratio of Bcl-2 G101V/WT” value in experiment [2] amounted to 14.3.
As for `CC(C)c1ccccc1[C@H]1CN(C(C)C)CCN1C1CC2(CCN(c3ccc(C(=O)NS(=O)(=O)c4ccc(NC[C@H]5CC[C@](C)(O)CC5)c([N+](=O)[O-])c4)c(Oc4cnc5[nH]ccc5c4)c3)CC2)C1` (single isomer, unassigned) [Example 3b, 2-((1H-pyrrolo[2,3-b]pyridin-5-yl)oxy)-N-((4-((((1r,4r)-4-hydroxy-4-methylcyclohexyl)methyl)amino)-3-nitrophenyl)sulfonyl)-4-(2-((R or S)-4-isopropyl-2-(2-isopropylphenyl)piperazin-1-yl)-7-azaspiro[3.5]nonan-7-yl)benzamide], the values for the IC50 in experiment [1] and in experiment [3] were 0.14 nM and 0.0083 nM, respectively. Moreover, the “Ratio of Bcl-2 G101V/WT” value in experiment [2] was determined as 16.9.
On to `COc1ccc(CN2CCN(C3CC4(CCN(c5ccc(C(=O)NS(=O)(=O)c6ccc(NC[C@H]7CC[C@](C)(O)CC7)c([N+](=O)[O-])c6)c(Oc6cnc7[nH]cc(F)c7c6)c5)CC4)C3)[C@H](c3ccccc3C(C)C)C2)cc1` (single isomer, unassigned) [Example 95, 2-((3-fluoro-1H-pyrrolo[2,3-b]pyridin-5-yl)oxy)-N-((4-((((1r,4r)-4-hydroxy-4-methylcyclohexyl)methyl)amino)-3-nitrophenyl)sulfonyl)-4-(2-((R or S)-2-(2-isopropylphenyl)-4-(4-methoxybenzyl)piperazin-1-yl)-7-azaspiro[3.5]nonan-7-yl) benzamide], for which the results for the IC50 in experiment [1] and in experiment [3] were 0.38 nM and 0.23 nM, respectively. The “Ratio of Bcl-2 G101V/WT” value in experiment [2] stood at 1.7.
For `COc1ccc(CN2CCN(C3CC4(CCN(c5ccc(C(=O)NS(=O)(=O)c6ccc(NC[C@H]7CC[C@](C)(O)CC7)c([N+](=O)[O-])c6)c(Oc6cnc7[nH]ccc7c6)c5)CC4)C3)C(c3ccccc3C3CCCC3)C2)cc1` (stereo partly drawn) [Example 36, 2-((1H-pyrrolo[2,3-b]pyridin-5-yl)oxy)-4-(2-(2-(2-cyclopentylphenyl)-4-(4-methoxybenzyl)piperazin-1-yl)-7-azaspiro[3.5]nonan-7-yl)-N-((4-((((1r,4r)-4-hydroxy-4-methylcyclohexyl)methyl)amino)-3-nitrophenyl)sulfonyl)benzamide] the same measures were 16 nM, 0.58 nM and 27.6.

By IC50 is commonly meant the concentration at which inhibition is half-maximal.
